Measured values taken from article PMC6150365, “Simultaneous Determination of Seven Components in Rat Plasma by the UPLC-MS/MS Method and Application of Pharmacokinetic Studies to SimiaoYong’an Decoction” (Molecules : A Journal of Synthetic Chemistry and Natural …, 2017).

Assay: Pharmacokinetic study in rats after oral administration of SYD extract and its single and combined TCM extracts (UPLC-MS/MS of plasma)
Settings: male, Sprague-Dawley, rat, plasma, po, n = 6; for AUC(0-t) / AUC(0-inf) / MRT last / MRT inf / Tmax / Cmax: rat plasma; for MRT last: MRT(0–t); for MRT inf: MRT(0–∞)
[1] = 2.49 g/kg, oral SN extract 2.49 g/kg
[2] = 3.38 g/kg extract (6.67 g/kg as herbs), oral SN + GU extract
[3] = 3.38 g·kg^−1 (extract), oral SN + GU extract
[4] = 3.98 g/kg extract (8.33 g/kg as herbs), oral SN + AS extract
[5] = 4.5 g·kg^−1 (extract), oral LJ + SN extract
[6] = 4.5 g·kg^−1 extract, oral LJ + SN extract
[7] = 4.73 g/kg, oral LJ + SN + GU extract 4.73 g/kg
[8] = 5.43 g/kg, oral LJ + SN + AS extract 5.43 g/kg
[9] = 8.25 g/kg, oral SYD extract 8.25 g/kg

`COc1ccc(CCO[C@@H]2O[C@H](CO[C@@H]3OC[C@H](O)[C@H](O)[C@H]3O)[C@@H](OC(=O)/C=C/c3ccc(O)c(OC)c3)[C@H](O[C@@H]3O[C@@H](C)[C@H](O)[C@@H](O)[C@H]3O)[C@H]2O)cc1O` [Angoroside C, angoroside C] showed an AUC(0-t) [1] of 90 ± 30 ng·h/mL, an AUC(0-inf) [1] of 110 ± 20 ng·h/mL and an MRT last [1] of 3.03 ± 0.37 h. It also gave an MRT inf [1] of 18.1 ± 3.41 h, a Tmax (2.49 g/kg, Tmax, oral SN extract 2.49 g/kg) of 1.25 ± 0.59 h and a half-life (2.49 g/kg, t1/2, rat plasma, oral SN extract 2.49 g/kg) of 10.7 ± 6.13 h. The MRT last [2] was 2.86 ± 1.21 h, the MRT inf [2] was 4.99 ± 3.19 h and the Tmax (3.38 g/kg extract (6.67 g/kg as herbs), Tmax, oral SN + GU extract) was 1.11 ± 0.52 h. The half-life (3.38 g/kg extract (6.67 g/kg as herbs), t1/2, rat plasma, oral SN + GU extract) was 9.91 ± 4.62 h, the AUC(0-t) [3] was 410 ± 60 ng·h/mL and the AUC(0-inf) [3] was 420 ± 80 ng·h/mL. It also gave a Cmax (3.38 g·kg^−1 extract, oral SN + GU extract) of 330 ± 50 ng/mL, an AUC(0-t) [4] of 450 ± 30 ng·h/mL and an AUC(0-inf) [4] of 460 ± 30 ng·h/mL. The MRT last [4] was 2.85 ± 1.25 h, the MRT inf [4] was 5.01 ± 3.31 h and the Tmax (3.98 g·kg^−1, Tmax, oral SN + AS extract) was 1.03 ± 0.49 h. It also gave a half-life (3.98 g·kg^−1, t1/2, rat plasma, oral SN + AS extract) of 10 ± 4.72 h, a Cmax (3.98 g·kg^−1 extract, oral SN + AS extract) of 400 ± 20 ng/mL and an MRT last [5] of 2.88 ± 1.23 h. For the same compound, the MRT inf [5] was 5.22 ± 3.5 h, the Tmax (4.5 g·kg^−1 (extract), Tmax, oral LJ + SN extract) was 1.07 ± 0.54 h and the half-life (4.5 g·kg^−1 (extract), t1/2, rat plasma, oral LJ + SN extract) was 10.3 ± 5.06 h. For the same compound, the AUC(0-t) [6] was 390 ± 460 ng·h/mL, the AUC(0-inf) [6] was 400 ± 460 ng·h/mL and the Cmax [6] was 270 ± 330 ng/mL. It also gave an AUC(0-t) [7] of 220 ± 90 ng·h/mL, an AUC(0-inf) [7] of 230 ± 190 ng·h/mL and a Cmax [7] of 150 ± 150 ng/mL. The MRT last [7] was 2.95 ± 0.82 h, the MRT inf [7] was 7.88 ± 6.88 h and the Tmax (4.73 g/kg, Tmax, oral LJ + SN + GU extract 4.73 g/kg) was 1.29 ± 0.46 h. The half-life (4.73 g/kg, t1/2, rat plasma, oral LJ + SN + GU extract 4.73 g/kg) was 11.7 ± 6.52 h, the AUC(0-t) [8] was 180 ± 130 ng·h/mL and the AUC(0-inf) [8] was 200 ± 130 ng·h/mL. The Cmax [8] was 140 ± 130 ng/mL, the MRT last [8] was 3.05 ± 0.7 h and the MRT inf [8] was 8.16 ± 6.76 h. It also gave a Tmax (5.43 g/kg, Tmax, oral LJ + SN + AS extract 5.43 g/kg) of 1.38 ± 0.44 h, a half-life (5.43 g/kg, t1/2, rat plasma, oral LJ + SN + AS extract 5.43 g/kg) of 11.8 ± 6.58 h and an AUC(0-t) [9] of 300 ± 290 ng·h/mL. For the same compound, the AUC(0-inf) [9] was 310 ± 290 ng·h/mL, the Cmax [9] was 180 ± 200 ng/mL and the MRT last [9] was 3.01 ± 0.69 h. For the same compound, the MRT inf [9] was 7.01 ± 5.95 h, the Tmax (8.25 g/kg, Tmax, oral SYD extract 8.25 g/kg) was 1.38 ± 0.44 h and the half-life (8.25 g/kg, t1/2, rat plasma, oral SYD extract 8.25 g/kg) was 11.4 ± 6.34 h. For the same compound, the Tmax ([…], Tmax, oral SN + AS + GU extract […]) was 1.38 ± 0.44 h and the half-life ([…], t1/2, rat plasma, oral SN + AS + GU extract […]) was 11.6 ± 6.42 h.
